Active and inactive are the calls of the source. The rule behind the calls is not given here.
What was measured:
Assay type in all cases: nucleic-acid assay
Details in all cases: Escherichia coli
[1] = system: Nucleic Acid; assay: DNA cleavage activity assessed as conversion of supercoiled pUC19 plasmid to nicked form at pH 7 after 24 hrs
[2] = system: Nucleic Acid; assay: DNA cleavage activity assessed as conversion of supercoiled pUC19 plasmid to nicked form at 0.286 mM at pH 7 after 24 hrs
[3] = system: Nucleic Acid; assay: DNA cleavage activity assessed as conversion of supercoiled pUC19 plasmid to nicked form at pH 7 after 24 hrs in presence of sodium azide
[4] = system: Nucleic Acid; assay: DNA cleavage activity assessed as conversion of supercoiled pUC19 plasmid to nicked form at pH 7 after 24 hrs in presence of sodium iodide
[5] = system: Nucleic Acid; assay: DNA cleavage activity assessed as conversion of supercoiled pUC19 plasmid to nicked form at pH 7 after 24 hrs in presence of hydrogen peroxide
[6] = system: Nucleic Acid; assay: DNA cleavage activity assessed as conversion of supercoiled pUC19 plasmid to nicked form at pH 7 after 24 hrs in presence of tertiary-butyl alcohol
[7] = system: Nucleic Acid; assay: DNA cleavage activity assessed as conversion of supercoiled pUC19 plasmid to nicked form at pH 7 after 12 hrs
[8] = system: Nucleic Acid; assay: DNA cleavage activity assessed as conversion of supercoiled pUC19 plasmid to nicked form at pH 7 after 1 hr

SMILES	Activity [1]	Activity [2]	Activity [3]	Activity [4]	Activity [5]	Activity [6]	Activity [7]	Activity [8]
CC(C)(S)CNCCN(CCN1CCCCC1)CC(C)(C)S	74.8%	–	–	–	–	–	–	–
CC1CC(C)CN(CCN(CCNCC(C)(C)S)CC(C)(C)S)C1 (stereo not given)	48.2%	–	–	–	–	–	–	–
CC1CCN(CCN(CCNCC(C)(C)S)CC(C)(C)S)CC1	100%	Active	inactive	inactive	Active	inactive	40.4%	30.9%

Source: ChEMBL document CHEMBL1144641, “DNA cleavage promoted by 2,9-dimethyl-4,7-diazadecane-2,9-dithiol (DDD) derivatives” (Bioorg Med Chem Lett, 2007)
